{"source": "patent US7709443B2", "about": "“Cyclic peptide antitumor agents” (Northwestern University, priority 2003, dated 2010)", "key": {"[1]": {"test_system": "AsPC-1 human pancreatic cancer cells", "experiment": "DNA synthesis by [methyl-3H] thymidine incorporation, AsPC-1", "format": "cell-based", "conditions": "AsPC-1, 24 hours, FIG. 6", "experimental": "(§1) Given the results of the preceding example, several compounds of this invention were tested against human pancreatic cancer cell lines. Two cancer cell lines were selected: S2-013 (well-differentiated) and AsPC-1 (poorly differentiated). These cell lines were purchased from American Type Culture Collection (Manassas, Va.). Both cell lines were grown in DMEM and plated as monolayers in the medium supplemented with 10% fetal bovine serum in a humidified atmosphere of […] and 5% CO2 at 37° C. The cells were regularly seeded into 75 cm^2 flasks with media changes every second or third day. For experiments, cells were grown to 70% confluence, digested with trypsin-EDTA, and plated in either 6-, 24-, or 48-well plates.\nDNA Synthesis by [methyl-^3H] Thymidine Incorporation. Cells were plated in 24-well plates at a concentration of 50,000 cells/well. […] Radioactivity, indicating incorporation of ^3H-methyl thymidine into DNA, was measured by adding scintillation cocktail and counting on a scintillation counter (LKB RackBeta; Wallac, Turku, Finland).\nStatistical Analysis. Data were analyzed by ANOVA with Dunnett's or Bonferoni's corrections for multiple comparisons, as appropriate. […] Data were expressed as mean±SEM."}, "AsPC-1 cells [2]": {"test_system": "AsPC-1 cells", "experiment": "Morphological changes using light microscopy, AsPC-1", "format": "cell-based, human", "conditions": "AsPC-1, 24 hours, 0.1-100 μM tested", "experimental": "as §1\nMorphological Changes Using Light Microscopy. AsPC-1 and S2-013 cells plated in 24-well plates were treated with varying concentrations (0.1-100 μM) of cyclic peptide 1k for 24 hours. Cells were then viewed using light microscopy, and digital images were taken with a Kodak DC120 zoom digital camera (Eastman Kodak Co., Rochester, N.Y.)."}, "AsPC-1 cells [3]": {"test_system": "AsPC-1 cells", "experiment": "Cell proliferation assay (Guava ViaCount cell number), AsPC-1", "format": "cell-based, human", "conditions": "AsPC-1, 10 μM, 72 hours, vs vehicle (DMSO)", "experimental": "as §1\n(§2) Cell Proliferation Assay. Cells were regularly seeded into three 6-well plates and incubated at 37° C. for 24 hours. Cells were then cultured in serum-free medium for another 24 hours and treated in fresh serum-free medium with or without 10 μM of cyclic peptide 1k for 24, 48, and 72 hours. At the end of each time period, the cells were trypsinized to produce a single cell suspension, and the cell number in each well was determined using Guava Technologies=ViaCount Assay (Guava Technologies Inc, Hayward, Calif.).\n(§3) Statistical Analysis. Data were analyzed by ANOVA with Dunnett's or Bonferoni's corrections for multiple comparisons, as appropriate. This analysis was performed with the Prism software package (GraphPad, San Diego, Calif.). Data were expressed as mean±SEM."}, "S2-013 cell line": {"test_system": "S2-013 cell line", "experiment": "Cell proliferation assay (Guava ViaCount cell number), S2-013", "format": "cell-based, human", "conditions": "S2-013, 10 μM, 72 hours, vs vehicle (DMSO)", "experimental": "as §1, §2, §3"}, "[4]": {"test_system": "AsPC-1 human pancreatic cancer cells", "experiment": "Cell cycle analysis by flow cytometry, AsPC-1", "format": "cell-based", "conditions": "AsPC-1, 10 μM, 24 hours", "experimental": "(§4) Cell Cycle Analysis by Flow Cytometry. AsPC-1 and S2013 human pancreatic cancer cells were cultured in T75 flasks with media containing 10% FBS. After reaching 50-60% confluence, the cells were serum-starved for 24 hours, and then treated with 10 μM of cyclic peptide 1k for 24 hours. At the end of the treatment, the cells were harvested with trypsin-EDTA solution to produce single cell suspension. The cells were then centrifuged at 1000×g for 10 minutes. The pellets were washed twice with ice-cold phosphate buffer saline (PBS), and re-suspended in 0.5 ml PBS. 5 ml of ice-cold 70% ethanol was added to each cell suspension and incubated for 12 hours at 4° C. The cells fixed in ethanol were centrifuged at 1000×g for 10 minutes and the subsequent pellets were washed with ice-cold PBS twice. The final cell pellets were reconstituted in the 1 ml Telford reagent and horizontally shaken for 1 hour in the dark at room temperature. The red fluorescence of the single events was recorded using a laser beam at 488 nm excitation 8 and 610 nm as emission 8 to measure the DNA index. Experiments were repeated three times."}, "[5]": {"test_system": "S2013 human pancreatic cancer cells", "experiment": "Cell cycle analysis by flow cytometry, S2013", "format": "cell-based", "conditions": "S2013, 10 μM, 24 hours", "experimental": "as §4"}, "[6]": {"test_system": "PC-3 (Prostate) human cancer cell line", "conditions": "three days", "method": "(§5) Cells were plated at 5,000 cells per well in 24-well plates, treated for three days, then counted. Cell number was normalized to the number of cells in untreated control (DMSO) cells, also after three days."}, "[7]": {"test_system": "MDA-MB231 (Breast) human cancer cell line", "conditions": "three days", "method": "as §5"}, "[8]": {"test_system": "WM115 (Melanoma) human cancer cell line", "conditions": "three days", "method": "as §5"}, "PC-3 cells": {"test_system": "PC-3 cells", "experiment": "Annexin V binding, induction of apoptosis", "format": "cell-based, human", "conditions": "after 72 hours", "excerpt": "The ability of the compounds in this invention to induce apoptosis was also studied, based on a methodology previously reported in the literature. (See, Soff et al. Cancer Res., 63:4275-4289, 2003.) As understood by those skilled in the art, the ability of Annexin V to bind two cells is related to altered phospholipids on a cell surface, induced by apoptosis. As such, increased Annexin V binding indicates induction of apoptosis."}, "[9]": {"test_system": "Caspase-3 activity in PC-3 cells", "experiment": "Caspase-3 activity, fluorometric assay", "format": "cell-based, human", "conditions": "relative to DMSO and staurosporin controls", "experimental": "Caspase-3 is a mediator of apoptosis, and induction of Caspase-3 activity indicates induction of apoptosis. Activity of Caspase-3 was measured by a fluorometric assay, as described in the literature, referenced above."}, "[10]": {"test_system": "HCT-116 (human colon carcinoma)", "experiment": "cells", "conditions": "HCT-116 bioassay, Table 1", "excerpt": "The HCT-116 human colon adenocarcinoma screen is a tissue culture first line assay to detect inherent cytotoxicity against malignant cancer cells. This strain is considered to be an “indicator strain” by many for the selection of inhibitors that target solid tumors. The assay is a calorimetric endpoint assay which can be produced in 96-well format trays. Data are acquired by plate reader and dose response curves are produced by computer analysis. […] This assay is run routinely as described below and would be understood in the art.\n1. Media (1000 mL McCoy's 5A Medium, 114 mL Fetal Bovine Serum, 25 mL Hepes buffer solution (IM), 12.5 mL Penicillin-Streptomycin solution)\n2. Cell line (HCT-116, human colon cancer cell line)\n3. Indicator (MTS and PMS in DPBS)\n5. Standard anticancer drug (etoposide (VP-16); stock is 4 mg/mL in DMSO\n6. DPBS (without CaCl2 and MgCl2)\n1. Remove medium from the cells and rinse with 10 mL sterile DPBS.\n3. Allow to stand in hood for 1 minute.\n4. Remove trypsin with sterile pipette.\n5. Allow flask to stand in hood for 2-5 minutes.\n6. Add 10 mL of media to flask and pipette up and down to gently break up cell clumps.\n7. Count the number of cells using a hemacytometer.\n8. Determine # of plates needed, and total volume of cell suspension (16 or 18 mL per plate).\n9. Dilute cells to a final concentration of 2.5×10^4 cells/mL in a sterile flask.\n10. Pour cell suspension into a sterile trough.\nFor Serial Dilution Plates\n1. Add 175 μL to each well in the first row of a 96 well plate.\n2. Add 150 μL to the rest of the wells in A1-A10 & A12.\n3. In row 11 add 150 μL cell suspension to the first 6 wells and only media to the last two.\nFor Single Concentration Plates\n1. Add 150 μL of sterile media to G11 & H11.\n2. Add 150 μL of cell suspension to all other wells.\n3. Add 25 μL more to well H1.\nIncubate plates overnight at 37° C. & 5% CO2\n1. Add 25 μL of test compounds @ 10 mg/mL to A1-A10, 25 μL of DMSO to A11 & 25 μL of etoposide (4 mg/mL) to A12.\n2. Using a twelve channel pipette, mix well then remove 50 μL from the first row and transfer to the next row, repeat down the plate until row F, then remove tip # 11 and continue down plate discarding the last 50 μL.\n3. Incubate plates for 72 h.\n1. Add 20 μL of MTS/PMS solution to each well.\n3. Read plates @490 nm on plate reader."}, "[11]": {"test_system": "National Cancer Institute's 60 cell-line panel", "conditions": "mean over panel; cited from earlier work"}, "topoisomerase I": {"test_system": "topoisomerase I", "conditions": "mechanism study in molluscum contagiosum virus; cited from earlier work"}, "[12]": {"test_system": "HCT-116 (human colon carcinoma)", "conditions": "as found for the natural product; cited from earlier work"}}, "note": "Like-named read-outs stand apart in the source and are kept apart here. Square brackets hold non-standard residues; d marks the D form. Peptide text beside a SMILES is read from it. NMePhe(4-Br) = CN[C@@H](Cc1ccc(Br)cc1)C(=O)O; Phe(4-Br) = N[C@@H](Cc1ccc(Br)cc1)C(=O)O; Hica(2S) = CC(C)C[C@H](O)C(=O)O; NMeL = CN[C@@H](CC(C)C)C(=O)O", "data": [{"molecule": "CC(C)C[C@@H]1NC(=O)[C@H](CC(C)C)NC(=O)[C@H](Cc2ccc(Br)cc2)N(C)C(=O)[C@H](CC(C)C)NC(=O)[C@H](C(C)C)NC1=O", "note": "[Compound 1k] (cyclo([NMePhe(4-Br)]LLVL))", "values": [{"measurement": "concentration-dependent effect on thymidine incorporation", "setting": "[1]", "value": "concentration-dependent inhibition"}, {"measurement": "compound concentration giving obvious morphological changes", "setting": "AsPC-1 cells [2]", "value": "≥ 10", "unit": "μM"}, {"measurement": "change in number of cells", "setting": "AsPC-1 cells [3]", "value": "significant (p<0.05) decrease"}, {"measurement": "change in number of cells", "setting": "S2-013 cell line", "value": "significant (p<0.05) decrease"}, {"measurement": "S phase fraction", "setting": "[4]", "value": "marked decrease"}, {"measurement": "cell cycle effect", "setting": "[4]", "value": "G0/G1 phase cell cycle arrest"}, {"measurement": "subG1 fraction of apoptotic cells", "setting": "[4]", "value": "increase"}, {"measurement": "S phase fraction", "setting": "[5]", "value": "marked decrease"}, {"measurement": "cell cycle effect", "setting": "[5]", "value": "G0/G1 phase cell cycle arrest"}, {"measurement": "subG1 fraction of apoptotic cells", "setting": "[5]", "value": "increase"}, {"measurement": "Fold Induction Over DMSO control", "setting": "[6]; PC-3, 1 μM", "value": 0.95}, {"measurement": "Fold Induction Over DMSO control", "setting": "[6]; PC-3, 10 μM", "value": 0.66}, {"measurement": "Fold Induction Over DMSO control", "setting": "[7]; MDA-MB231, 1 μM", "value": 3.17}, {"measurement": "Fold Induction Over DMSO control", "setting": "[7]; MDA-MB231, 10 μM", "value": 0.41}, {"measurement": "Fold Induction Over DMSO control", "setting": "[8]; WM115, 1 μM", "value": 1.05}, {"measurement": "Fold Induction Over DMSO control", "setting": "[8]; WM115, 10 μM", "value": 0.13}]}, {"molecule": "CC(C)C[C@@H]1NC(=O)[C@H](Cc2ccc(Br)cc2)NC(=O)[C@H](CC(C)C)N(C)C(=O)[C@H](C(C)C)NC(=O)[C@H](CC(C)C)NC1=O", "note": "[Compound 1i] (cyclo([Phe(4-Br)]LLV[NMeL]))", "values": [{"measurement": "change in number of cells", "setting": "AsPC-1 cells [3]", "value": "significant (p<0.05) decrease"}, {"measurement": "change in number of cells", "setting": "S2-013 cell line", "value": "significant (p<0.05) decrease"}, {"measurement": "induction of apoptosis (Annexin V binding)", "setting": "PC-3 cells", "value": "induction of apoptosis was observed"}, {"measurement": "Caspase-3 activity", "setting": "[9]", "value": "induced"}, {"measurement": "Fold Induction Over DMSO control", "setting": "[6]; PC-3, 1 μM", "value": 0.85}, {"measurement": "Fold Induction Over DMSO control", "setting": "[7]; MDA-MB231, 1 μM", "value": 0.96}, {"measurement": "Fold Induction Over DMSO control", "setting": "[8]; WM115, 1 μM", "value": 1.44}]}, {"molecule": "CC(C)C[C@@H]1NC(=O)[C@H](C(C)C)NC(=O)[C@H](CC(C)C)OC(=O)[C@H](CC(C)C)NC(=O)[C@H](Cc2ccccc2)NC1=O", "note": "[Sansalvamide A, reference compound] (cyclo(FL[Hica(2S)]VL))", "values": [{"measurement": "IC50", "setting": "[10]", "value": 9.8, "unit": "µg/mL"}, {"measurement": "Fold Induction Over DMSO control", "setting": "[6]; PC-3, 1 μM", "value": 0.95}, {"measurement": "Fold Induction Over DMSO control", "setting": "[6]; PC-3, 10 μM", "value": 0.22}, {"measurement": "Fold Induction Over DMSO control", "setting": "[7]; MDA-MB231, 1 μM", "value": 0.90}, {"measurement": "Fold Induction Over DMSO control", "setting": "[7]; MDA-MB231, 10 μM", "value": 0.09}, {"measurement": "Fold Induction Over DMSO control", "setting": "[8]; WM115, 1 μM", "value": 0.98}, {"measurement": "Fold Induction Over DMSO control", "setting": "[8]; WM115, 10 μM", "value": 0.02}, {"measurement": "mean IC50 against NCI 60 cell-line panel", "setting": "[11]", "value": 27.4, "unit": "µg/mL"}, {"measurement": "inhibition of topoisomerase I", "setting": "topoisomerase I", "value": "inhibitor of topoisomerase I"}, {"measurement": "in vitro value toward HCT-116 colon carcinoma", "setting": "[12]", "value": 9.8, "unit": "µg/mL"}]}]}
